Results taken from patent US20060206946A1, “Method of disrupting heme transport in nematodes and of modelling and evaluating eukaryotic heme transport” (priority 2005, published 2006).

Tests used:
Type in all cases: in vivo, Caenorhabditis elegans
[1] = test system: C. elegans mutant IH1068 d; test: Growth of heme resistant mutant in CeHR medium; set-up: key to Growth 1.6 μM hemin / Growth 0.5 μM GaPP: + = wild type equivalent In growth; ND: No growth
Method: (§1) To further increase the stringency of our genetic screen we split the contents from each 800 μM hemin selection flasks into two flasks containing either 800 μM or 1000 μM hemin. This allowed us to use another tier of positive selection to identify mutants with greater resistance to heme toxicity. Mutants from each flask were isolated and treated as a separate entity by giving an identification number based on the Genetic Nomenclature Guidelines used for C. elegans (http://biosci.umn.edu/CGC/Nomenclature/nomenguid.htm). To eliminate EMS-induced spurious mutations that could result in false positive, the mutants were outcrossed to wild-type N2 males. After five outcrosses, which replaces ˜97% of the mutant genome, mutants that bred true were selected for further analysis. Using this procedure, we isolated 13 individual mutants that were resistant to heme toxicity. These mutants were further characterized by analyzing Mendelian segregation ratios, X-linkage, phenotype penetrance, generation times, brood size, and their ability to grow under low hemin. […] This observation was surprising because we anticipated that high heme-resistant mutants will grow poorly under low heme. Based on the mutant's growth profile at low and high heme levels, we broadly categorized them into three phenotypic classes: class A, class B and class C (FIG. 13). These “phenoclusters” have the following growth phenotype: (a) three mutants IH728, IH938, IH731 show with robust growth under low and high (≧800 μM heme (FIG. 13B), (b) one mutant IH828 show exceptional growth under low heme, moderate growth at ≦800 μM heme, and no growth at 1000 μM hemin (FIG. 13C), and (c) six mutants IH921, IH11058, IH1068n, IH1068d, IH1048, and IH718 that show moderate growth under high heme (≦800 μM), but normal growth under low heme (FIG. 13D). By classifying these mutants into phenoclusters, we can focus our efforts on the phenotypic datasets to map the molecular networks and pathways involved in heme dependent processes. For instance, mutants in a cluster may have mutations within the same gene or in multiple genes but within the same pathway.
(§2) Worm Culture and Growth Assays. Free-living worms were cultured in CeHR axenic liquid medium (Dr. Eric Clegg, Personal Communication). […] CeHR medium was modified (henceforth called mCeHR) to eliminate all sources of exogenously added heme; basal growth medium comprised 20 μM hemin chloride (Frontier Scientific, Logan, Utah) and 150 μM of ferrous ammonium sulfate (Sigma Chemicals). Worm strains were grown in mCeHR medium under aerobic conditions in tissue culture flasks at 20° C. ˜3.7×10^6 worms were routinely obtained after 3.5 to 4 days in a T75 flask with 30 ml basal medium from an initial inoculum of −1.5×10^5 worms. For initial culturing of worms in axenic media, three generations of worms were sequentially bleached (1.1% bleach/0.55 M NaOH) to eliminate any contaminating bacterial carryover from agar plates. In all dose-response experiments, worms were growth synchronized by treating the gravid hermaphrodite worms with bleach to dissolve adult worms. The eggs, resistant to bleach, were liberated from the carcasses and extensively washed with M9 buffer followed by overnight hatching in M9 buffer to synchronize growth. By harvesting at appropriate time intervals, synchronous larval stages and adult staged worms were collected for experimental manipulations. Identical numbers of synchronized L1 larvae were inoculated into media with different heme concentrations in 12- or 24-well culture plates. Worm growth was monitored each day and an aliquot was obtained for counting by microscopy usually at days 3, 6, and 9. The worms in each well were counted twice and each growth condition was analyzed in triplicate. P values for statistical significance were calculated utilizing a one-way ANOVA with Student-Newman-Keuls multiple comparison test using GraphPad Instat version 3.01. […]

[2] = test system: C. elegans mutant IH1068 n; test: Growth of heme resistant mutant in CeHR medium; set-up: key to Growth 1.6 μM hemin / Growth 0.5 μM GaPP: + = wild type equivalent In growth; ND: No growth
Method: as §1, §2

[3] = test system: C. elegans genes transcriptionally regulated by heme; test: Affymetrix C. elegans Genome Array: genes transcriptionally regulated by heme (4 and 500 μM vs 20 μM hemin); conditions: low heme (4 μM)
Method: Worms were grown at 4 μM (low) 20 μM (optimal) and 500 μM (high) hemin in axenic CeHR medium. We chose 4 and 500 μM hemin because these heme concentrations were at either end of the worm growth spectrum, and worms at these heme concentrations show a ˜24 h growth delay compared to worms grown at 20 μM hemin. […] In order to eliminate maternal effect genes, wild-type N2 worms were grown for two synchronized generations in their respective hemin concentrations to obtain F2 worms at the […] as determined by morphological analysis of the vulva. F2 worms from all three heme conditions were harvested at the same mid-L4 stage for final RNA extraction. The RNA was extracted with Trizol and treated with RNase-free DNase to remove any contaminating DNA followed by a purification on a Qiagen RNeasy column. Each experiment was performed four independent times on four separate days to ensure proper sampling and to account for experimental variations. […]
From these genes, 58 genes were excluded because they were specific to germline, sperm or oocyte development, as determined by cross-checking with publicly available microarray databases. […]
The initial statistical analysis of the Affymetrix genome array was performed at the NIDDK microarray facility using Affymetrix MAS 5.0 Suite software. […] The standard error for ΔΔCt will be calculated by the method of Livak and Schmittgen. […]

Substance: hemin chloride
- Growth 1.6 μM hemin [1]: +
- brood size 20 μM ([1]; 20 μM hemin, average in 24 well plates): 12.4
- Generation time (Days) 800 μM ([1]; 800 μM hemin): 4 days
- Growth 1.6 μM hemin [2]: +
- Generation time (Days) 20 μM ([2]; 20 μM hemin): 4 days
- upregulation of R02E12.6 in microarrays [3]: 16 fold
